Read-outs that look alike come from different tables or passages of the source.

One data set concerns SKBR-3 cells. Kind of data set: Growth curves of SKBR-3 cells (toxicity). In kind it is cell-based, human. Particulars: SKBR-3 cell monolayers, 0.5 ng/ml, 2.5 h incubation. On the procedure: Growth curves^125I-Compound 1, Compound 1, doxorubicin, or daunorubicin were dissolved in culture media to a concentration of 0.5 ng/ml. The specific activity of ^125I-Compound 1 was 100 kBq/ng. SKBR-3 cells were incubated with drug in 60 mm plastic Petri dishes as triplicates, for 2.5 h. Control-cells were incubated with ordinary culture medium. After incubation, the medium was removed from all dishes and cells were washed six times with serum-free medium. Cells were detached from dishes by adding 0.5 ml of trypsin/EDTA for 10 min at a temperature of 37° C. After re-suspension in 1 ml of culture media cells were counted using a coulter counter (Z2 Coulter Counter, Beckman Coulter) and sub-cultivated to 10^5 cells to generate growth curves. Growth curves were corrected for loss of cells at each sub-cultivation.

Data set [1] in a line: Drug retention in liposomes. The note with it: incubated in medium at 37° C. for 24 h. It is filed as physicochemical. As for the experimental part:
Liposomes were composed of 1,2-distearoyl-sn-glycero-3-phosphatidyl-choline (DSPC), cholesterol, 1,2-distearoyl-sn-glycero-3-phosphatidyl-ethanolamine-N-[methoxy (poly-ethyleneglycol)-2000 (DSPE-PEG2000) at a molar ratio of 57:40:3. Liposomes were prepared by the lipid film hydration method. Briefly, cholesterol and lipids were dissolved in chloroform. The solvent was evaporated under a gentle stream of nitrogen gas and the lipid film was dried under vacuum overnight. The lipid film was hydrated with 300 mM citrate buffer (pH 4) for 1 h with intermediate vortex mixing at a lipid concentration of 20 mM at a temperature of 60° C. Liposomes were repetitively frozen in liquid nitrogen and thawed at a temperature of 60° C. five times before extrusion. Liposomes were extruded ten times through two stacked polycarbonate membranes filters (Whatman Inc. Nucleopore, Newton, Mass.) with a pore size of 100 nm at a room temperature using an Avanti Mini-extruder (Avanti Polar Lipids Inc., Alabaster, Ala.). […]
Liposomes were incubated at temperatures of 37° C. or 60° C. […] The fluorescence intensity of samples was determined at an excitation wavelength of 468 nm and an emission wavelength of 589 nm. The percentage of encapsulated drug after incubation was determined relative to the amount of encapsulated drug before incubation.

For data set [2], the system named is human tumour A431 cells (squamous carcinoma). In words: Binding of 125I-Compound 1 to permealised A431 cells (gamma counter, fluorescence microscopy). In kind it is cell-based. As for the experimental part:
Human cultured tumour cells […] were grown as monolayer cultures using Ham's F-10 medium (Biochrom AG, Berlin, Germany) containing 10% fetal calf serum, glutamine (2 mM), streptomycin (100 μg/ml), and penicillin (100 IU/ml) at a temperature of 37° C. in a humidified 5% CO2 incubator.
Cultured human tumour A431 cells (squamous carcinoma) were grown on glass slides, cooled to a temperature of 4° C., and washed with phosphate buffer. Cells were inactivated in methanol for 15 minutes at a temperature of −20° C. and then quickly washed at a temperature of 4° C. with phosphate buffer. Cells were thereafter permealised by acetone treatment for 10 seconds at a temperature of 4° C. After drying cells were incubated with ^125I-Compound 1 at room temperature for one hour, washed, and analyzed for radioactivity using a gamma counter (1480 Wallac Wizard, Perkin Elmer, Wellesley, Mass., USA). In addition, cells were inspected by fluorescence microscopy.

Data set [3] relates to calf thymus DNA (CT DNA). Kind of data set: Fluorescence titration, binding to calf thymus DNA. The note with it: room temperature, BPES buffer pH 7, n=3. On the procedure:
Type 1 calf thymus DNA sodium salt (Sigma-Aldrich Co., St Louis, M.O., USA) was hydrated in BPES buffer (6 mM Na2HPO4, 2 mM NaH2PO4, 1 mM EDTA, 185 mM NaCl, pH 7) at a concentration of approximately 2 mg/ml and sonicated at approximately 8 μA in a MSE Soniprep 150 ultrasonic disintegrator (Integrated Services TCP Inc., Palisades Park, N.J., USA) for 30 min in a water bath on ice. The sample was then dialyzed for 48 h against BPES using Slide-A-Lyzer® dialysis cassettes (10,000 MWCO) (Pierce, Rockford, Ill., USA). The final DNA concentration was determined spectrophotometrically on a HP8453 spectrophotometer (Hewlett-Packard Company Houston Tex., USA) at a wavelength of 260 nm using an extinction coefficient of 12,824 M (bp)^−1 cm^−1.
Fluorescence titration experiments were performed on a SPEX 1680 Fluorolog spectrofluorometer (SPEX Industries Inc., Edison, N.J., USA) at room temperature with λex=480 nm (slid width 2.5 mm) and λem=592 nm (slid width 2.5 mm). The initial free drug concentration was 1 μM. […] The concentration of bound drug was calculated by the difference between CT and Cf. Binding constants (Ki) and exclusion parameters (n) were calculated by plotting r/Cf versus r (Scatchard plot), where r is the number of moles of bound drug per mol DNA base pairs. Theoretical curves for the neighbor exclusion model were calculated by using the algorithm: r/Cf=Ki(1−nr)[(1−nr)/[1−(n−1)r]]^n−1 (J. Mol. Biol. 86, 469-489, 1974)
where Ki (M^−1) is the intrinsic binding constant and n (base pairs) is the exclusion parameter. The parameters Ki and n were varied to generate theoretical curves that closest fitted the experimental data.

A short description of data set [4]: Dissolution of drug in 10% (wt/vol) sucrose solution. Particulars: 0.5 mM in 10% (wt/vol) sucrose solution. It is filed as physicochemical. On the procedure:
Compound 1 (3′-N-(4-hydroxy-3-iodobenzyl)-13-(R/S)-dihydrodaunorubicin, stereoisomeric mixture) and Compound 2 (3′-N-(4-Hydroxy-3-iodobenzyl)daunorubicin), structures are shown below, or doxorubicin (Sigma Aldrich, St. Louis, Mo., USA) were encapsulated into liposomes using the pH-gradient driven loading protocol by Mayer et al. The pH gradient across the liposome membrane was generated by exchanging the extravesicular 300 mM citrate buffer (pH 4) with 20 mM N-[2-hydroxyethyl]piperazine-N′-[2-ethanesulfonic acid] (HEPES) buffered 150 mM saline (HBS) (pH 7.5) on a Sephadex G-50 column. Doxorubicin was dissolved in HBS at a concentration of 1 mM. Compound 1 was dissolved at a concentration of 0.5 mM in 10% (wt/vol) sucrose solution. […] A preheated drug solution was added to the liposomes at a 0.2 drug-to-lipid molar ratio. The mixture was incubated for 15 min at a temperature of 60° C. with intermittent mixing using a Vortex-apparatus resulting in 100% drug encapsulation.

In data set [5] the test system is calf thymus DNA (CT DNA). Particulars: literature values; cited from earlier work.
For data set [6] the following is noted: cited from earlier work.
Data set [7] deals with thyroid cancer, lymphomas, bladder carcinomas, sarcomas, ovarian carcinomas, leukemias. The note with it: cited from earlier work.

Consider `COc1cccc2c1C(=O)c1c(O)c3c(c(O)c1C2=O)C[C@@](O)(C(C)O)C[C@@H]3O[C@H]1C[C@@H](NCc2ccc(O)c(I)c2)[C@H](O)C(C)O1` (mixture of isomers) [Compound 1, 3′-N-(4-hydroxy-3-iodobenzyl)-13-(R/S)-dihydrodaunorubicin], for which the “cytotoxic effect (growth curves)” value with SKBR-3 cells is recorded as “Neither of the latter compounds had any significant cytotoxic effect”. The “drug remaining encapsulated in liposomes” value in data set [1] is “more than 90%”. Further, the “localisation in cells by fluorescence microscopy” value in data set [2] was “bound to the cell nucleus and not located inside the cytoplasm”. Besides, the “n (exclusion parameter)” value in the data set on calf thymus DNA (CT DNA) [3] came out at 3.4 base pairs.
In the case of `COc1cccc2c1C(=O)c1c(O)c3c(c(O)c1C2=O)C[C@@](O)(C(C)=O)C[C@@H]3O[C@H]1C[C@@H](NCc2ccc(O)c(I)c2)[C@H](O)C(C)O1` (some centres unmarked) [Compound 2, 3′-N-(4-Hydroxy-3-iodobenzyl)daunorubicin], the dissolution of drug result in data set [4] was “did not dissolve completely”. In addition, the “n (exclusion parameter)” value with calf thymus DNA (CT DNA) [3] came out at 3.7 base pairs.
As to `COc1cccc2c1C(=O)c1c(O)c3c(c(O)c1C2=O)C[C@@](O)(C(C)=O)C[C@@H]3O[C@H]1C[C@H](N)[C@H](O)[C@H](C)O1` [daunorubicin, Daunorubicin], in the data set on calf thymus DNA (CT DNA) [5], the “n (exclusion parameter), literature value” is 3.5 base pairs. Moreover, the “cytotoxic effect (growth curves)” value in the data set on SKBR-3 cells is “Neither of the latter compounds had any significant cytotoxic effect”. For the same compound, the “n (exclusion parameter)” value with calf thymus DNA (CT DNA) [3] was determined as 3.6 base pairs.
On to `COc1cccc2c1C(=O)c1c(O)c3c(c(O)c1C2=O)C[C@@](O)(C(=O)CO)C[C@@H]3O[C@H]1C[C@H](N)[C@H](O)[C@H](C)O1` [doxorubicin, Doxorubicin], for which the “cardiac toxicity up to congestive heart failure, share of patients” value in data set [6] (patients) was 1-10%. The “side effect alopecia, share of patients” value in data set [6] (patients) is 100%. The “side effect nausea and vomiting, share of patients” value in data set [6] (patients) is recorded as 20-55%. Besides, in data set [6] (treated patients), the “acute dose-limiting toxicity: bone-marrow suppression, leukopenia, and stomatitis, share of treated patients” value is reported as 80%. Besides, the “n (exclusion parameter), literature value” in the data set on calf thymus DNA (CT DNA) [5] is given as 3.8 base pairs. Besides, the overall response rate in data set [7] (bladder carcinomas) is recorded as 33%; in data set [7] (leukemias), 24%; in data set [7] (lymphomas), 41%; in data set [7] (ovarian carcinomas), 25%; in data set [7] (sarcomas) it was 26%; in data set [7] (thyroid cancer), 45%. Moreover, the “cytotoxic effect (growth curves)” value in the data set on SKBR-3 cells is recorded as “Neither of the latter compounds had any significant cytotoxic effect”. In addition, the “drug remaining encapsulated in liposomes” value in data set [1] is “Approximately 80%”. Moreover, in the data set on calf thymus DNA (CT DNA) [3], the “n (exclusion parameter)” value was found to be 3.9 base pairs.

These data come from patent US8609135B2, “Anthracycline derivatives” (Nuclisome AB, priority 2004, dated 2013).
